# Test results taken from PMC3975428, “Dimers of G-Protein Coupled Receptors as Versatile Storage and Response Units” (International Journal of Molecular Sciences, 2014).
# Tests used:
# [1] = test system: neuropeptide Y (NPY) receptor dimers; conditions: cited from earlier work
# Source text: The most studied and probably the most frequent complexes of eukaryotic heptahelical receptors are those with G-protein αβγ heterotrimers. With many GPCR dimers these assemblies survive solubilization by steroid detergents such as digitonin and cholate and could be detected as ~180 kDa heteropentamers by density gradient centrifugation ([15, 16]; see also Figure 1 in this study) and also can be solubilized by acylamine oxide surfactants such as lauryldimethylamine oxide (LDAO) and detected by circular dichroism spectroscopy. The frequently used zwitterionic detergents, e.g., CHAPS (3 ...
# [2] = test system: 180 kDa heteropentamer and 90 kDa monomer-Gi α of Y2 receptor; conditions: 10 mM CHAPS, cited from earlier work
# Source text: The stability and affinity of agonist association with CHO-Y2 receptors could also be analyzed at the level of dimers and monomers by extraction and precipitation procedures coupled to competition binding assays (Figure 6). […] The 180 kDa labeled material is not sensitive to ...
# [3] = test system: Y2 receptor aggregates (rabbit kidney); test: Y2 receptor aggregates, sedimentation after treatment, rabbit kidney particulates; type: biochemical; conditions: 15 min at 24 °C
# Experimental: (§1) Figure 5. […] Particulates from rabbit kidney (A) and anterior hypothalamus (B) were incubated with 20 μM GγS or 10 μM U73122 for 15 min at 24 °C, sedimented, resuspended, labeled with 50 pM [^125I]hPYY(3–36) for 15 min at 24 °C, resedimented, lysed at 10 mM each digitonin and cholate and sedimented through a 10%–30% linear sucrose gradient for 6 h at 218,000× g and 5 °C, followed by gradient fractionation and counting. TEXT PRINTED IN THE PICTURE: (A) GγS: Bottom count: 10.8% | (A) U73122: Bottom count: 25.4% | (B) GγS: Bottom count: 8.98 % | (B) U73122: Bottom count: 17.4 %
# (§2) Rabbit kidney postmitochondrial particulates, rabbit piriform cortex and hypothalamic crude synaptosomes and CHO cell postnuclear particulates were prepared as described previously. After solubilization of particulates at 10 mM each of digitonin and sodium cholate in buffer A or B, the lysates were spun for 10 min at 1000× g to remove debris, and the supernatants sedimented for periods indicated in figure captions at 218,000× gmax through linear 5%–20% sucrose gradients (10 mL, made in buffer A). The gradients were divided by bottom dripping in 23 fractions of 0.45 mL. The sedimentation positions were calibrated with [^125I]-labeled bovine γ-globulin (158 kDa), human iron-saturated transferrin (75 kDa) and ovalbumin (44 kDa), and with colorized myosin (211 kDa), producing a linear relation of migration to molecular weight (R^2 > 0.99).
# [4] = test system: aggregated Y2 receptor material (rabbit kidney and CHO-Y2 particulates); test: Release of aggregated Y2 receptor material (bottom of 5%–20% gradients); type: biochemical; conditions: 20 μM
# Experimental: More than 30% of the Y2 binding in rabbit kidney postmitochondrial particulates, and more than 20% in the CHO-Y2 postnuclear particulates sediments to the bottom of 5%–20% sucrose gradients over 18 h at 218,000× gmax, corresponding to weight in excess of 1000 kDa. A large part of this material sediments at 30,000× gmax over 10 min, and could be considered as aggregated. […] This preliminary experiment points to potential of such procedures in quantitation of effector-associated receptors at the level of dimers and monomers. There also is a promise of gaining more insight on the size and significance of receptor oligomers incorporating more than two receptor monomers.
# as §2
# G-protein α subunit = test: Stability of GγS labeling; type: biochemical; conditions: 4 °C
# Experimental: (§3) The receptors were labeled for 30 min at 25 °C in respective particulates (50 μg protein/assay), employing not more than 50 pM [^125I]-labeled agonist peptides (as stated in individual experiments). Higher molar inputs of agonist peptides would produce significant Gα activation within short exposures (e.g., [24, 53]). The basal assay buffer contained 0.2% proteinase-free bovine serum albumin, 20 mM hepes.NaOH (pH 7.4), 1 mM diisopropylfluorophosphate, 0.04% bacitracin, and 10 μg/mL each of proteinase inhibitors aprotinin, bestatin, chymostatin, leupeptin and pepstatin. Depending on experiment design, this was supplemented by 3 mM CaCl2 and 1 mM MgCl2, (buffer A) or by 1 mM Na EDTA, pH 7.4 (buffer B). The nucleotide site labeling at 200 pM [^35S]GγS was for 30 min at 28 °C after pre-activation for 30 min at 28 °C at 3 μM GDP in the basal buffer with 50 μM EDTA, 100 mM NaCl and 4 mM MgCl2, and without CaCl2 (buffer C). All subsequent operations were carried out at 0–5 °C. The assays were terminated by sedimentation for 10 min at 30,000× gmax, followed by surface wash of the pellets.
# [5] = test system: 180 kDa heteropentamer (Y2 receptor dimer, G-protein trimer); test: Nucleotide labeling / conversion of 180 kDa heteropentamer to 90 kDa Gi3α-receptor monomer; type: biochemical
# Experimental: as §3
# as §2, with “0.99). […]” for “0.99).”
# [6] = test system: Y2 receptor aggregates (anterior hypothalamus); test: Y2 receptor aggregates, sedimentation after treatment, rabbit anterior hypothalamus particulates; type: biochemical; conditions: 20 μM, 15 min at 24 °C, 10%–30% gradient 6 h at 218,000× g
# Experimental: as §1
# as §2, with “The sedimentation positions were calibrated with [^125I]-labeled bovine γ-globulin (158 kDa), human iron-saturated transferrin (75 kDa) and ovalbumin (44 kDa), and with colorized myosin (211 kDa), producing a linear relation of migration to molecular weight (R^2 > 0.99).” left out
# Gi/o subunits = conditions: hypothalamic vs. rabbit kidney cortex; Table 2; cited from earlier work
# Source text: (§4) Figure 2. Rundown of the Y2 agonist is much faster in tissues with large Gi/o content. […] The rabbit kidney cortex has a much lower expression of Gi/o subunits than the anterior hypothalamus (The Bmax for [^35S]GγS binding is more than 20-fold higher in hypothalamic tissue (ref. [24], Table 2). However, the kidney Y2 receptor is expressed at about four times the level of the hypothalamic. The above parameters in the Ca^2+/Mg^2 ...
# [7] = test system: rabbit kidney Y2 receptor; test: PYY(3–36) binding to rabbit kidney Y2 receptor (heteropentamer and monomer forms); conditions: rabbit kidney particulates, digitonin and cholate lysis
# [8] = test system: Y2 receptor (rabbit kidney cortex particulates); test: Rundown of Y2 agonist tracer, kidney cortex; type: biochemical; conditions: 50 pM, 60 min at 25 °C, Ca^2+/Mg^2+ buffer
# Source text: as §4, with “Ca^2+/Mg^2+ buffer lead to a much faster transduction with hypothalamic particulates (graph A); and a considerable (58%) rundown of the tracer peptide relative to 1 mM EDTA buffer. In the same assay, the relative rundown is only 12% with kidney particulates (graph B).” for “Ca^2+/Mg^2 ...”
# Higher molar inputs of agonist peptides would produce significant Gα activation within short exposures (e.g., [24, 53]). The basal assay buffer contained 0.2% proteinase-free bovine serum albumin, 20 mM hepes.NaOH (pH 7.4), 1 mM diisopropylfluorophosphate, 0.04% bacitracin, and 10 μg/mL each of proteinase inhibitors aprotinin, bestatin, chymostatin, leupeptin and pepstatin. Depending on experiment design, this was supplemented by 3 mM CaCl2 and 1 mM MgCl2, (buffer A) or by 1 mM Na EDTA, pH 7.4 (buffer B). […]
# [9] = test system: Y2 receptor (hypothalamic particulates); test: Rundown of Y2 agonist tracer, anterior hypothalamus; type: biochemical, rabbit; conditions: 50 pM, 60 min at 25 °C, Ca^2+/Mg^2+ buffer
# Source text: as §4, with “Ca^2+/Mg^2+ buffer lead to a much faster transduction with hypothalamic particulates (graph A); and a considerable (58%) rundown of the tracer peptide relative to 1 mM EDTA buffer. In the same assay, the relative rundown is only 12% with kidney particulates (graph B).” for “Ca^2+/Mg^2 ...”
# as §3, with “The nucleotide site labeling at 200 pM [^35S]GγS was for 30 min at 28 °C after pre-activation for 30 min at 28 °C at 3 μM GDP in the basal buffer with 50 μM EDTA, 100 mM NaCl and 4 mM MgCl2, and without CaCl2 (buffer C). All subsequent operations were carried out at 0–5 °C. The assays were terminated by sedimentation for 10 min at 30,000× gmax, followed by surface wash of the pellets.” left out
# [10] = test system: Y2 receptor dimers (CHO cells); test: Dimer content of Y2 receptors labeled by [^125I]PYY(3–36) in density gradients; type: binding, human receptor in CHO cells; conditions: duplicate gradients; for dimer content: labeled 30 min at 25 °C; for content of dimer: particulates from CHO cells, labeled 20 min at 27 °C
# Experimental: Figure 1. Stability of agonist-labeled Y2 receptor dimers to incubation at 27 °C and to removal of divalent cations. Duplicate 5%–20% gradients (see Section 3.3) were centrifuged for 18 h at 5 °C. All results are average percentages of total counts in the corresponding gradient fractions from two gradients for each condition. The respective standard errors were in most cases below 10%, and for clarity are not shown. (A) Y2 receptor dimers in particulates from CHO cells are stable to incubation at 27 °C. The incubation of particulate suspension in the assay buffer at 27 °C was for 1 h (followed by 2 h at 0–4 °C) or 3 h, while the control suspension was incubated in ice for 3 h. […] The content of dimer, in % total gradient counts, was 66.2 ± 3.7 for 4 °C control, 63.4 ± 3.4 after preincubation for 1 h at 27 °C, and 64.3 ± 3.4 after preincubation for 3 h at 27 °C; (B) Y2 receptor dimers are not disbanded by removal of divalent cations.
# as §3, with “Higher” for “The receptors were labeled for 30 min at 25 °C in respective particulates (50 μg protein/assay), employing not more than 50 pM [^125I]-labeled agonist peptides (as stated in individual experiments). Higher”
# as §2
# CHO-Y1 dimers = conditions: ADP-ribosylation of Gi type α subunits; cited from earlier work
# Source text: (§5) This could be of interest in many physiological conditions. The loss of CHO-Y1 and CHO-Y2 dimers due to neutralization of Gi type α subunits through ADP-ribosylation by pertussis toxin [16, 29] could be viewed as a constitutive equivalent of the reduction shown in Figure 4. In conditions of normal Gi utilization in CHO-Y2, the di ...
# CHO-Y2 dimers = conditions: ADP-ribosylation of Gi type α subunits; cited from earlier work
# Source text: as §5
# NPY receptor dimers = conditions: via ADP-ribosylation of Gαi subunits; cited from earlier work
# Source text: The virtues of oligomerization for GPCRs are many. Oligomers would have much larger ability than monomers to anchor to the membranes, rafts and vesicles. Protein (including the receptor) removal by particulate (proteasomal and/or lysosomal) proteolysis is found to be much less for dimers compared to monomers, as is also observed for enzyme carriers. This is dramatically confirmed by elimination of NPY receptor dimers by pertussis toxin via ADP-ribosylation of Gαi subunits. Association with transducers and effectors could also be enhanced for the dimers. Chances ...
molecule,measurement,setting,value
"C[C@H](CCC(=O)NCCC[N+](C)(C)CCCS(=O)(=O)[O-])[C@H]1CC[C@H]2[C@@H]3[C@H](O)C[C@@H]4C[C@H](O)CC[C@]4(C)[C@H]3C[C@H](O)[C@]12C [CHAPS, 3-[3-cholamidopropyldimethylammonio]-1-propanesulfonate]",effect on NPY receptor dimers,[1],tend to destabilize
same,sensitivity of 180 kDa binding,[2]; relative to 90 kDa zone,much less sensitive
same,effect on 90 kDa zone agonist binding,[2],completely dissociates
"Nc1nc2c(ncn2[C@@H]2O[C@H](COP(=O)(O)OP(=O)(O)OP(O)(O)=S)[C@@H](O)[C@H]2O)c(=O)[nH]1 [GγS, Guanosine 5′-O-(γ-thiotriphosphate)]",main form yielded from Y2 receptor aggregates,"[3]; particulates from rabbit tissues (kidney and anterior hypothalamus), GγS 20 μM or U73122 10 μM",mainly Gi-Y2 monomer
same,Bottom count,"[3]; rabbit kidney, 20 μM, 10%–30% gradient 6 h at 218,000× g",10.8%
same,form of released material,[4],largely in the form of activated monomers
same,part of aggregated material released,[4],A considerable part
same,stability of G-protein α subunit labeling,G-protein α subunit,stable at 4 °C
same,labeling of G-protein trimer in 180 kDa heteropentamer,[5],not labeled
same,conversion of 180 kDa heteropentamer,"[5]; 1–5 mM Mg^2+, micromolar GDP or GγS",does convert to immunoprecipitable 90 kDa Gi3α-receptor monomer
same,Bottom count,[6],8.98%
"Nc1nc2c(ncn2C2OC(COP(=O)(O)OP(=O)(O)OP(O)(O)=[35S])C(O)C2O)c(=O)[nH]1 (centres unmarked) [[^35S]GγS, [^35S]guanosine 5′-(γ-thio)triphosphate]","Bmax for binding, hypothalamic relative to kidney tissue",Gi/o subunits,more than 20 fold
"[^125I]PYY(3–36): Monoiodinated HPLC-purified [^125I]human PYY(3–36), labeled Y2 agonist",degradation of the receptor-bound tracer,[7],very low
same,rundown of the tracer peptide relative to 1 mM EDTA buffer,[8],12%
same,rundown of the tracer peptide relative to 1 mM EDTA buffer,[9],58%
same,dimer content,"[10]; buffer A (3 mM CaCl2, 1 mM MgCl2)",65.9 ± 4.7 % gradient counts
same,dimer content,"[10]; buffer B (1 mM Na EDTA, divalent cations removed)",60.8 ± 4.6 % gradient counts
same,content of dimer,[10]; 4 °C control (3 h in ice),66.2 ± 3.7 % total gradient counts
same,content of dimer,[10]; preincubation 1 h at 27 °C (then 2 h at 0–4 °C),63.4 ± 3.4 % total gradient counts
same,content of dimer,[10]; preincubation 3 h at 27 °C,64.3 ± 3.4 % total gradient counts
pertussis toxin,effect on CHO-Y1 dimers,CHO-Y1 dimers,loss
same,effect on CHO-Y2 dimers,CHO-Y2 dimers,loss
same,effect on NPY receptor dimers,NPY receptor dimers,elimination
